# Measured values taken from US20260158011A1 (Achieve Life Sciences, Inc., priority 2023, published 2026).
# Marks after values point to notes of the source that are not given here.
# Tested on: adult e-cigarette users
# Source text: A second measurement consisted of biochemically verified continuous vaping abstinence at any time during treatment, with vaping abstinence at Week 3-6 or Week 6-9 for of cytisinicline treatment vs placebo. 7-day point prevalence rates were compared for vaping abstinence (Week 2 to 12) (FIG. 62). An additional measurement included reduction in daily vaping as measured by cotinine, where cytisinicline treatment vs placebo for a reduction in nicotine vaping using weekly quantitative cotinine levels from Week 2 to Week 12. Safety was assessed by adverse effects and serious adverse effects, considering number, severity, and attribution to study drug.
# [1] = by Preferred Term table, 12 Weeks, N = 106, Safety Set
# [2] = overall summary, 12 Weeks, N = 106, Safety Set
# [3] = possibly, probably or definitely related, 12 Weeks, N = 106, Safety Set
smiles,measurement,setting,value
"O=c1cccc2n1C[C@@H]1CNC[C@H]2C1 [cytisine, (−)-Cytisine]","TEAE Migraine, subjects n","12 Weeks, N = 106, Safety Set",1 n
same,"TEAE Musculoskeletal chest pain, subjects %","12 Weeks, N = 106, Safety Set",(0.9) %
same,"TEAE Musculoskeletal chest pain, subjects n","12 Weeks, N = 106, Safety Set",1 n
same,"TEAE Nasal congestion, subjects","12 Weeks, N = 106, Safety Set",0 n (%)
same,"TEAE Nasopharyngitis, subjects","12 Weeks, N = 106, Safety Set",0 n (%)
same,"TEAE Nausea, subjects %","12 Weeks, N = 106, Safety Set",(4.7) %
same,"TEAE Nausea, subjects n","12 Weeks, N = 106, Safety Set",5 n
same,"TEAE Neck pain, subjects %","12 Weeks, N = 106, Safety Set",(1.9) %
same,"TEAE Neck pain, subjects n","12 Weeks, N = 106, Safety Set",2 n
same,"TEAE Oropharyngeal pain, subjects %","12 Weeks, N = 106, Safety Set",(1.9) %
same,"TEAE Oropharyngeal pain, subjects n","12 Weeks, N = 106, Safety Set",2 n
same,"TEAE Otitis media, subjects","12 Weeks, N = 106, Safety Set",0 n (%)
same,TEAE Outcome Fatal,"12 Weeks, N = 106, Safety Set",0 n (%)/Events
same,"TEAE Outcome Not recovered/Not resolved, Events","12 Weeks, N = 106, Safety Set",23 Events
same,"TEAE Outcome Not recovered/Not resolved, subjects","12 Weeks, N = 106, Safety Set",14 (13.2) n (%)
same,TEAE Outcome Recovered/Resolved with sequelae,"12 Weeks, N = 106, Safety Set",0 n (%)/Events
same,"TEAE Outcome Recovered/Resolved, Events","12 Weeks, N = 106, Safety Set",93 Events
same,"TEAE Outcome Recovered/Resolved, subjects","12 Weeks, N = 106, Safety Set",47 (44.3) n (%)
same,"TEAE Outcome Recovering/Resolving, Events","12 Weeks, N = 106, Safety Set",3 Events
same,"TEAE Outcome Recovering/Resolving, subjects","12 Weeks, N = 106, Safety Set",3 (2.8) n (%)
same,"TEAE Pain in jaw, subjects","12 Weeks, N = 106, Safety Set",0 n (%)
same,"TEAE Panic attack, subjects %","12 Weeks, N = 106, Safety Set",(1.9) %
same,"TEAE Panic attack, subjects n","12 Weeks, N = 106, Safety Set",2 n
same,"TEAE Pelvic pain, subjects %","12 Weeks, N = 106, Safety Set",(0.9) %
same,"TEAE Pelvic pain, subjects n","12 Weeks, N = 106, Safety Set",1 n
same,"TEAE Post viral fatigue syndrome, subjects","12 Weeks, N = 106, Safety Set",0 n (%)
same,"TEAE Pregnancy, subjects","12 Weeks, N = 106, Safety Set",0 n (%)
same,"TEAE Procedural anxiety, subjects %","12 Weeks, N = 106, Safety Set",(0.9) %
same,"TEAE Procedural anxiety, subjects n","12 Weeks, N = 106, Safety Set",1 n
same,"TEAE Pyrexia, subjects","12 Weeks, N = 106, Safety Set",0 n (%)
same,"TEAE Relationship Definite, Events","12 Weeks, N = 106, Safety Set",3 Events
same,"TEAE Relationship Definite, subjects","12 Weeks, N = 106, Safety Set",3 (2.8) n (%)
same,"TEAE Relationship Not Related (first line, total of Not Related and Unlikely), Events","12 Weeks, N = 106, Safety Set",65 Events
same,"TEAE Relationship Not Related (first line, total of Not Related and Unlikely), subjects","12 Weeks, N = 106, Safety Set",38 (35.8) n (%)
same,"TEAE Relationship Not Related (second line, sub-category), Events","12 Weeks, N = 106, Safety Set",55 Events
same,"TEAE Relationship Not Related (second line, sub-category), subjects","12 Weeks, N = 106, Safety Set",32 (30.2) n (%)
same,"TEAE Relationship Possible, Events","12 Weeks, N = 106, Safety Set",29 Events
same,"TEAE Relationship Possible, subjects","12 Weeks, N = 106, Safety Set",17 (16.0) n (%)
same,"TEAE Relationship Probable, Events","12 Weeks, N = 106, Safety Set",22 Events
same,"TEAE Relationship Probable, subjects","12 Weeks, N = 106, Safety Set",16 (15.1) n (%)
same,"TEAE Relationship Unlikely, Events","12 Weeks, N = 106, Safety Set",10 Events
same,"TEAE Relationship Unlikely, subjects","12 Weeks, N = 106, Safety Set",9 (8.5) n (%)
same,"TEAE Restless legs syndrome, subjects %","12 Weeks, N = 106, Safety Set",(0.9) %
same,"TEAE Restless legs syndrome, subjects n","12 Weeks, N = 106, Safety Set",1 n
same,"TEAE Sensitive skin, subjects %","12 Weeks, N = 106, Safety Set",(0.9) %
same,"TEAE Sensitive skin, subjects n","12 Weeks, N = 106, Safety Set",1 n
same,"TEAE Severity Mild, Events","12 Weeks, N = 106, Safety Set",92 Events
same,"TEAE Severity Mild, subjects","12 Weeks, N = 106, Safety Set",50 (47.2) n (%)
same,"TEAE Severity Moderate, Events","12 Weeks, N = 106, Safety Set",26 Events
same,"TEAE Severity Moderate, subjects","12 Weeks, N = 106, Safety Set",16 (15.1) n (%)
same,"TEAE Severity Severe, Events","12 Weeks, N = 106, Safety Set",1 Events
same,"TEAE Severity Severe, subjects","12 Weeks, N = 106, Safety Set",1 (0.9) n (%)
same,"TEAE Sinus congestion, subjects %","12 Weeks, N = 106, Safety Set",(0.9) %
same,"TEAE Sinus congestion, subjects n","12 Weeks, N = 106, Safety Set",1 n
same,"TEAE Sinusitis, subjects","12 Weeks, N = 106, Safety Set",0 n (%)
same,"TEAE Stress, subjects %","12 Weeks, N = 106, Safety Set",(0.9) %
same,"TEAE Stress, subjects n","12 Weeks, N = 106, Safety Set",1 n
same,"TEAE Thirst, subjects %","12 Weeks, N = 106, Safety Set",(0.9) %
same,"TEAE Thirst, subjects n","12 Weeks, N = 106, Safety Set",1 n
same,"TEAE Tooth extraction, subjects","12 Weeks, N = 106, Safety Set",0 n (%)
same,"TEAE Trismus, subjects","12 Weeks, N = 106, Safety Set",0 n (%)
same,"TEAE Upper respiratory tract infection, subjects %","12 Weeks, N = 106, Safety Set",(5.7) %
same,"TEAE Upper respiratory tract infection, subjects n","12 Weeks, N = 106, Safety Set",6 n
same,"TEAE Urinary tract infection, subjects %","12 Weeks, N = 106, Safety Set",(0.9) %
same,"TEAE Urinary tract infection, subjects n","12 Weeks, N = 106, Safety Set",1 n
same,"TEAE Vasectomy, subjects %","12 Weeks, N = 106, Safety Set",(0.9) %
same,"TEAE Vasectomy, subjects n","12 Weeks, N = 106, Safety Set",1 n
same,"TEAE Vomiting, subjects %","12 Weeks, N = 106, Safety Set",(0.9) %
same,"TEAE Vomiting, subjects n","12 Weeks, N = 106, Safety Set",1 n
same,"TEAE Wisdom teeth removal, subjects %","12 Weeks, N = 106, Safety Set",(0.9) %
same,"TEAE Wisdom teeth removal, subjects n","12 Weeks, N = 106, Safety Set",1 n
same,"Adverse event Abnormal dreams, %",Cytisinicline 12 wks (N = 106),12.3%
same,"Adverse event Anxiety, %",Cytisinicline 12 wks (N = 106),9.4%
same,"Adverse event Fatigue, %",Cytisinicline 12 wks (N = 106),5.7%
same,"Adverse event Headache, %",Cytisinicline 12 wks (N = 106),6.6%
same,"Adverse event Insomnia, %",Cytisinicline 12 wks (N = 106),10.4%
same,"Adverse event Nausea, %",Cytisinicline 12 wks (N = 106),4.7%
same,"Adverse event Upper respiratory tract infection, %",Cytisinicline 12 wks (N = 106),5.7%
same,At Least One TEAE,Cytisinicline 12 wks (N = 106),54 (50.9) n (%)
same,"Subjects with At Least One TEAE, %",Cytisinicline 12 wks (N = 106),50.9%
same,TEAE relationship: Not Related,Cytisinicline 12 wks (N = 106),39 (35.8) n (%)
same,TEAE relationship: Related,Cytisinicline 12 wks (N = 106),30 (28.3) n (%)
same,Treatment-emergent adverse events: Mild,Cytisinicline 12 wks (N = 106),50 (47.2) n (%)
same,Treatment-emergent adverse events: Moderate,Cytisinicline 12 wks (N = 106),16 (15.1) n (%)
same,Treatment-emergent adverse events: Severe,"Cytisinicline 12 wks (N = 106), abnormal dreams",1 (0.9)* n (%)
same,"At Least One TEAE, subjects %",[1],(50.9) %
same,"At Least One TEAE, subjects n",[1],54 n
same,Rate of adverse events,"cytisinicline arm, 12 weeks",50.9%
same,"Adverse event COVID-19, %","human, in vivo",3 (2.8) %
same,"TEAE COVID-19, subjects %","human, in vivo",(2.8) %
same,"TEAE COVID-19, subjects n","human, in vivo",3 n
same,"TEAE Influenza, subjects %","human, in vivo",(1.9) %
same,"TEAE Influenza, subjects n","human, in vivo",2 n
same,"At Least One TEAE, Events",[2],119 Events
same,"At Least One TEAE, subjects",[2],54 (50.9) n (%)
same,"TEAE Relationship Related, Events",[3],54 Events
same,"TEAE Relationship Related, subjects",[3],30 (28.3) n (%)
